The source of these data is patent US20080293572A1, “Herbicidal Mixtures” (BASF SE, priority 2005, published 2008).

Holding throughout (assay): Greenhouse post-emergence herbicidal trial
In experiment [1] the test system is ECHCG. The format is in vivo, Echinochloa crus-galli. Conditions: MSO or COC 1.25% where in mixture, scale 0-100. The text has this:
(§1) The culture vessels used were plastic flowerpots filled, as substrate, with sandy loam comprising about 3% of humus. The seeds of the test plants were sown separated according to species.
(§2) For the post-emergence treatment, the test plants were initially cultivated to a height of 3-17 cm according to their habit and only then treated with the active compounds, which had been suspended or emulsified in water. To this end, the test plants were either sown directly and cultivated in the same vessels, or they were initially cultivated separately as seedlings and transplanted into the test vessels a few days prior to the treatment. According to the species, the plants were kept at temperatures of from 15° C. to 25° C. or from 20 to 35° C. The trial period extended over 3 weeks. During this time the plants were tended and their response to the individual treatments was evaluated.
(§3) The application in the greenhouse was carried out at a spray liquor application rate of 200 l/ha.

For experiment [2], the system named is SORBI. It counts as in vivo, Sorghum bicolor. The following applies: SORBI; a) 25 g/ha, MSO or COC 1.25% where in mixture, scale 0-100.
Text: as §1, §2, §3

Experiment [3] relates to XANST. It counts as in vivo, Xanthium strumarium. Conditions: XANST; a) 12.5 g/ha, MSO or COC 1.25% where in mixture, scale 0-100.
Text: as §1, §2, §3

Experiment [4] relates to SOLNI. It counts as in vivo, Solanum nigrum. Conditions: SOLNI; a) 3.125 g/ha, MSO or COC 1.25% where in mixture, scale 0-100.
Text: as §1, §2, §3

The test system of experiment [5] is HELAN. It counts as in vivo, Helianthus annua. Conditions: HELAN; a) 6.25 g/ha, MSO or COC 1.25% where in mixture, scale 0-100.
Text: as §1, §2, §3

The test system of experiment [6] is PANDI. It counts as in vivo, Panicum dichotomiflorum. The following applies: PANDI; a) 25 g/ha, MSO or COC 1.25% where in mixture, scale 0-100.
Text: as §1, §2, §3

The subject of experiment [7] is SETVI. It counts as in vivo, Setaria viridis. Conditions: SETVI; a) 12.5 g/ha, MSO or COC 1.25% where in mixture, scale 0-100.
Text: as §1, §2, §3

The subject of experiment [8] is PANMI. It counts as in vivo, Panicum milliaceum. The following applies: PANMI; a) 12.5 g/ha, MSO or COC 1.25% where in mixture, scale 0-100.
Text: as §1, §2, §3

For experiment [9], the system named is AMBEL. The format is in vivo, Ambrosia elatior. Conditions: AMBEL; a) 3.125 g/ha, MSO or COC 1.25% where in mixture, scale 0-100.
Text: as §1, §2, §3

In the case of `Cc1c(C(=O)c2cnn(C)c2O)ccc(S(C)(=O)=O)c1C1=NOCC1` [a)], the observed effect in experiment [1] (ECHCG; a) 12.5 g/ha) amounted to 0; in experiment [1] (ECHCG; a) 25 g/ha), 0; in [2], 10; in experiment [3], 65; in experiment [4] it was 30; in experiment [5] it was 30. In addition, the observed effect in experiment [6] was determined as 0; in [7], 60; in experiment [8], 75; in experiment [9], 60.
